Source: patent US11026944B2, “Compositions and methods for treating insomnia” (Eisai R&D Management Co., Ltd., priority 2014, dated 2021)

Key:
Type in all cases: in vivo, human
[1] = 001 Study Part B: plasma PK of compound A; settings: subjects with primary insomnia, single evening dose
Description: For subjects in Part B, blood samples for measurements of plasma concentrations of compound A were obtained by direct venipuncture on Day 1 predose and at 0.5, 9, 12, 24, 36, 60, 84, 108, 156, and 228 hours postdose.
Plasma concentrations of compound A were measured using a validated liquid chromatography-mass spectrometry/mass spectrometry (LC-MS/MS) assay.

[2] = test system: healthy adult subjects; experiment: 002 Study: next-day residual sleepiness (KSS, PVT, DSST) and Waketime Questionnaire
Description: All subjects were administered PD assessments, including the Karolinska Sleepiness Scale (KSS), Digit Symbol Substitution Test (DSST), and Psychomotor Vigilance Test (PVT) in order to assess acute sleepiness in the interval between dosing and bedtime, as well as next-day residual sleepiness and the level of alertness and ability to concentrate. In addition, a Waketime Questionnaire was administered daily in order to assess quality of sleep on the previous night.
PD effects were assessed by evaluating postdose and next-day functioning on the KSS, DSST, and the PVT, and by self-report of sleep quality on the Waketime Questionnaire. The KSS, DSST, and PVT were performed starting Day-1 at 15 minutes before habitual bedtime; on Days 1 to 15 within 15 minutes after habitual waketime, and at 1, 2, 4, 8, and 12 hours after habitual waketime, and on Days 1 to 14 at 15 minutes predose and 15 minutes postdose. 24-hour Holter recordings were started 30 minutes before bedtime on Day-2 and just prior to dosing on Day 14. Extractions from these recordings were used to conduct ECG analyses, including the HPQT analysis. Waketime Questionnaires were administered on Day 1 to Day 19.
The KSS, PVT, and DSST were administered on each treatment day in the evening predose and postdose to assess the acute effect of compound A on sleepiness. For these timepoints, the daily 15 minutes predose values on the KSS, DSST, and PVT served as a baseline for that day's 15 minutes postdose value (daily baseline). The KSS, PVT, and DSST were also administered throughout the daytime hours subsequent to each dosing evening to assess the effect of compound A on next-day residual sleepiness. For these timepoints, the assessments taken at Day 1, 15 minutes and 1, 2, 4, 8, and 12 hours after habitual waketime served as the baseline for the assessments taken at the corresponding times after habitual waketime on Day 2 to Day 15 (time-matched baseline). Waketime Questionnaires were administered on Day 1 through Day 19 in the morning hours. The predose value on Day 1 was used as the baseline. The difference between placebo and each dose of compound A in change from baseline at each timepoint was calculated along with 95% confidence intervals (CIs). Potential dose-response and time trend were explored as data allowed.

[3] = test system: subjects with insomnia; experiment: 201 Study: Karolinska Sleepiness Scale (next-day residual sleepiness)
Description: All subjects returned to the clinic on Day-1 for Baseline Period procedures. They remained in the clinic until Day 3. Morning assessments on Day 1 provided the Baseline values for the KSS, the Digit Symbol Substitution Test (DSST), and the Reaction Time Index (RTI). Assessments at 6 hours after waketime provided the Baseline values for the Waking Function Battery (WFB), and the Profile of Mood States-Brief (POMS-B). Subjects were then randomized to receive 1 of 6 doses of compound A or placebo for the next 15 days. Study drugs were tablets containing compound A-matched placebo or compound A of 1 mg, 2.5 mg, 5 mg, or 10 mg and to be ingested 30 minutes before the median habitual bedtime calculated from their Sleep Diary responses during the Screening Period. An 8-hour PSG, starting at the same bedtime as used for the screening and Baseline PSG nights, was recorded on the first 2 treatment nights (Days 1 and 2). The Sleep Diary continued to be completed each day in the clinic, and assessments of insomnia severity (ISI), next-day residual effects (KSS, DSST, and RTI) were conducted while subjects were in the clinic. On specified study days, plasma concentrations of compound A were assessed while subjects were in the clinic in the morning after awakening and at trough just before dosing.
The KSS was used to measure next-day residual effects at prespecified timepoints. In this test, subjects rate their sleepiness using the KSS, a 9-point verbally anchored scale. Categories and scores range from“extremely alert” (score=1), “alert” (3), “neither alert nor sleepy” (5), “sleepy-but no difficulty remaining awake” (7), to “extremely sleepy-fighting sleep” (9). The key outcome parameter for the KSS was the score from 1 to 9.
Each dose was assessed for next-day residual sleepiness using the KSS. A mean difference of change from baseline in KSS at 1 hour after waketime on Day 2 and Day 3 of less than 4 units was incorporated into the utility function. A dose of compound A was considered to have an acceptable KSS at Day 15 and Day 16 if the mean difference of change from baseline in KSS at 1 hour after waketime on Day 15 and Day 16 at this dose relative to placebo was less than 4 units. Operationally, acceptable KSS for Day 15 and Day 16 was defined as the […] boundary of a 90% confidence interval (CI) being less than 4 units (of the mean difference of change from baseline in KSS at 1 hour after waketime at this dose relative to placebo).
In Table 6, “Baseline” was defined as the time-matched value on Day 1. “LS Means Diff” refers to the differences between LS Means of Placebo and each compound A dose, “95% CI” means to 95% CI of LS Means Diff. “p-value” was analyzed using analysis of covariance (ANCOVA) with baseline as a covanate.

[4] = 1 hour post waketime, 1 mg nightly
[5] = 1 hour post waketime, 2.5 mg nightly
[6] = 1 hour post waketime, 5 mg nightly
[7] = 1 hour post waketime, 10 mg nightly
[8] = 1 hour post waketime, 15 mg nightly
[9] = 1 hour post waketime, 25 mg nightly

Compound: Cc1ncc(OC[C@@]2(c3cccc(F)c3)C[C@H]2C(=O)Nc2ccc(F)cn2)c(C)n1 [Compound A, (1R,2 S)-2-(((2,4-dimethylpyrimidin-5-yl)oxy)methyl)-2-(3-fluorophenyl)-N-(5-fluoropyridin-2-yl) cyclopropanecarboxamide]
- concentration-time profiles in Part B compared with Part A [1]: approximately similar to their corresponding dose groups in Part A
- next day residual sleepiness as measured by KSS, PVT, DSST ([2]; 2.5-75 mg once daily for 14 days): dose-related increases in both the magnitude and duration
- next-day residual sleepiness vs placebo (KSS, PVT, DSST) ([2]; 2.5-mg and 5-mg dose groups, any time, any treatment day): no meaningful difference from placebo
- next-day residual sleepiness vs placebo (KSS) ([2]; 10-mg dose group, within 2 hours after waketime, Day 2 through Day 4): Slight differences from placebo
- increase in next-day residual sleepiness ([2]; 25-mg dose group, within 2 hours after waketime): more consistent and slightly larger than in the 10-mg dose group
- next-day residual sleepiness vs placebo, all assessments ([2]; 50-mg and 75-mg dose groups): consistent and relatively large differences from placebo
- Waketime Questionnaire: changes in nighttime sleep ([2]; any dose group): None of the items on the Waketime Questionnaire indicated a systematic pattern of changes in nighttime sleep
- measures of sleepiness vs placebo ([2]; by 12 hours after waketime, any dose group, any day): no differences from placebo
- KSS vs placebo, significance ([3]; 15 min post waketime timepoints): No statistically significant differences
- Change from Baseline in KSS, Mean of Days 2 & 3: LS Means Diff vs placebo [3, 4]: 0.02
- Change from Baseline in KSS, Mean of Days 2 & 3: Mean [3, 4]: −0.2
- Change from Baseline in KSS, Mean of Days 15 & 16: LS Means Diff vs placebo [3, 4]: 0.51
- Change from Baseline in KSS, Mean of Days 15 & 16: Mean [3, 4]: 0.3
- Change from Baseline in KSS, Mean of Days 2 & 3: LS Means Diff vs placebo [3, 5]: −0.06
- Change from Baseline in KSS, Mean of Days 2 & 3: Mean [3, 5]: −0.3
- Change from Baseline in KSS, Mean of Days 15 & 16: LS Means Diff vs placebo [3, 5]: 0.13
- Change from Baseline in KSS, Mean of Days 15 & 16: Mean [3, 5]: −0.1
- Change from Baseline in KSS, Mean of Days 2 & 3: LS Means Diff vs placebo [3, 6]: 0.20
- Change from Baseline in KSS, Mean of Days 2 & 3: Mean [3, 6]: −0.1
- Change from Baseline in KSS, Mean of Days 15 & 16: LS Means Diff vs placebo [3, 6]: 0.43
- Change from Baseline in KSS, Mean of Days 15 & 16: Mean [3, 6]: 0.1
- Change from Baseline in KSS, Mean of Days 2 & 3: LS Means Diff vs placebo [3, 7]: 0.16
- Change from Baseline in KSS, Mean of Days 2 & 3: Mean [3, 7]: 0.0
- Change from Baseline in KSS, Mean of Days 15 & 16: LS Means Diff vs placebo [3, 7]: 0.01
- Change from Baseline in KSS, Mean of Days 15 & 16: Mean [3, 7]: −0.1
- Change from Baseline in KSS, Mean of Days 2 & 3: LS Means Diff vs placebo [3, 8]: 0.32
- Change from Baseline in KSS, Mean of Days 2 & 3: Mean [3, 8]: 0.1
- Change from Baseline in KSS, Mean of Days 15 & 16: LS Means Diff vs placebo [3, 8]: 0.38
- Change from Baseline in KSS, Mean of Days 15 & 16: Mean [3, 8]: 0.1
- Change from Baseline in KSS, Mean of Days 2 & 3: LS Means Diff vs placebo [3, 9]: 0.47
- Change from Baseline in KSS, Mean of Days 2 & 3: Mean [3, 9]: 0.4
- Change from Baseline in KSS, Mean of Days 15 & 16: LS Means Diff vs placebo [3, 9]: 0.68
- Change from Baseline in KSS, Mean of Days 15 & 16: Mean [3, 9]: 0.6
- KSS LS mean differences vs placebo, significance ([3]; 1 hour post waketime, Mean of Days 2/3, 1 mg to 15 mg): not statistically significant
- KSS vs placebo, significance ([3]; 2 hour post waketime, mean of Days 2/3, 15 mg and 25 mg): statistical significance
- KSS vs placebo, significance ([3]; 2 hour post waketime, mean of Days 15/16, 25 mg): statistically significant
